Assays:
[1] = 93 kPa, Liquid; for viscosity: Concentric cylinders viscometry; for mass density: Vibrating tube method
[2] = molar heat capacity at constant pressure; details: Liquid, Flow calorimetry

c1ccc(Oc2ccccc2)cc1 [diphenyl ether]
[1]
Details	mass density [kg/m3]	viscosity [mPa·s]
303.15 K	1065.5	3.33
308.15 K	1061.2	2.96
313.15 K	1056.9	2.65
323.15 K	1048.2	2.17
333.15 K	1039.6	1.82
343.15 K	1030.9	1.54
353.15 K	1022.3	1.33
363.15 K	1013.7	1.16
373.15 K	1005.2	1.03

molar heat capacity at constant pressure [J/K/mol], [2]
Details	100 kPa	5000 kPa	10000 kPa	15000 kPa	20000 kPa	25000 kPa
313.15 K	274.37	273.52	273.18	272.5	272.16	–
333.15 K	286.97	285.95	284.93	284.59	283.39	282.71
353.15 K	299.05	298.03	296.84	296.33	295.48	294.63
